Activity calls are given as the source filed them. How the calls were made is not given here.
The compounds below were run against Ubiquitin-conjugating enzyme E2 N (Homo sapiens) (UniProt P61088) (assay: NMR detection of UBE2N ligand binding – biophysical, purified protein (AID 1552)). Settings: NMR binding to purified UBE2N.
Chain of Ubiquitin-conjugating enzyme E2 N (Homo sapiens) (P61088 whole entry, looked up): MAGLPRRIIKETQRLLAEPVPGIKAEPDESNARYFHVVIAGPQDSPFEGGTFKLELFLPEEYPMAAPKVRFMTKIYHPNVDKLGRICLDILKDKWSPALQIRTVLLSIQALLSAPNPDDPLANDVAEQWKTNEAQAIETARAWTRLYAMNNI
For `Cn1nnc2cc(CO)ccc21`, the Kd was > 4 mM (inactive). In the case of `O=C(NC1=NCCS1)c1csc2ccccc12`, the Kd is reported as > 4 mM (inactive). In the case of `Cc1cc(/C=N/O)nc(=O)[nH]1`, the Kd is reported as > 4 mM (inactive). For `Oc1ccc2c(c1)OCO2`, the Kd was > 4 mM (inactive). `CC(=O)Nc1cccc(NC(=O)c2ccco2)c1` was tested, and the Kd was > 4 mM (inactive). `CN1CCC=C(C(=O)O)C1` was tested, and the Kd was > 4 mM (inactive). For `O=C1NC(=O)/C(=C\c2ccco2)S1`, the Kd was > 4 mM (inactive). In the case of `Cn1cc(Cl)c(C(=O)Nc2ccncc2)n1`, the Kd is reported as > 4 mM (inactive). In the case of `OCc1cccc2c1OCCO2`, the Kd is reported as > 4 mM (inactive). `CN(C)C(=S)Nc1nc2ccccc2s1` was tested, and the Kd was > 4 mM (inactive). In the case of `CN1CCN(c2cc(=O)n(C)c(=O)[nH]2)CC1`, the Kd is reported as > 4 mM (inactive). With `CCNC(=S)N1CCCC(C(N)=O)C1` (centres undefined) the Kd was > 4 mM (inactive). `Cc1occc1C(=O)N1CCC2(CC1)OCCO2` was tested, and the Kd was > 4 mM (inactive). For `O=C(O)CSc1cccc2cccnc12`, the Kd was > 4 mM (inactive). For `Nc1csc(C(=O)O)c1`, the Kd was > 4 mM (inactive). In the case of `COc1cc2c(cc1OC)-c1nnnn1C(C)(C)C2`, the Kd is reported as > 4 mM (inactive). For `O=C(NCN1CCOCC1)c1cccnc1`, the Kd was > 4 mM (inactive). `OC1CCC(C(F)(F)F)CC1` (centres undefined) was tested, and the Kd was > 4 mM (inactive). In the case of `S=c1[nH]nc(-c2cccnc2)n1Cc1ccccc1`, the Kd is reported as > 4 mM (inactive). With `CC(=O)c1cccc(NC2=NCC(C)(C)S2)c1` the Kd was > 4 mM (inactive). In the case of `C/C(N)=C/C(=O)N1CCCCC1`, the Kd is reported as > 4 mM (inactive). `COc1ccc(C(C)=O)c(OC)c1` was tested, and the Kd was > 4 mM (inactive). `NC(=O)CSc1ccc(-c2ccccc2)nn1` was tested, and the Kd was > 4 mM (inactive). For `Cn1ccc(C(=O)NC(=S)NN2CCOCC2)n1`, the Kd was > 4 mM (inactive). `Fc1ccc(NC2=NCCS2)cc1Cl` was tested, and the Kd was > 4 mM (inactive). `CCC1(CC)C(=O)NC(=O)N=C1N` was tested, and the Kd was > 4 mM (inactive). In the case of `Cc1ccccc1NC(=O)c1ocnc1C`, the Kd is reported as > 4 mM (inactive). With `CC(C)NC(=O)Cc1c(O)c2ccccc2[nH]c1=O` the Kd was > 4 mM (inactive). With `NC1=C([N+](=O)[O-])C(=O)c2ccccc21` the Kd was > 4 mM (inactive). In the case of `CSc1nnc2c(n1)OC=Nc1ccccc1-2`, the Kd is reported as > 4 mM (inactive). With `COc1cccc(N2CCNCC2)c1` the Kd was > 4 mM (inactive). `c1ccc(SCc2nc(-c3ccccn3)no2)cc1` was tested, and the Kd was > 4 mM (inactive). In the case of `CSc1ccc(S(=O)(=O)N2CCCC2)cc1`, the Kd is reported as > 4 mM (inactive). In the case of `Cc1occc1C(=O)NCc1ccccn1`, the Kd is reported as > 4 mM (inactive). For `c1ccc(CN2CCC3(CC2)Nc2ccccc2CO3)cc1`, the Kd was > 4 mM (inactive). For `Nc1nc(NCc2ccco2)nn1-c1ccccc1`, the Kd was > 4 mM (inactive). In the case of `O=C(Nc1ccccc1)C(=O)NC1CC1`, the Kd is reported as > 4 mM (inactive). In the case of `O=[N+]([O-])c1cccc2c1nnn2C(CO)OCCO` (centres undefined), the Kd is reported as > 4 mM (inactive). In the case of `COc1ccccc1C(=O)Nc1ccccn1`, the Kd is reported as > 4 mM (inactive). With `CC(=O)c1ccc(-n2ccnc2)cc1` the Kd was > 4 mM (inactive). For `Cc1cc2ncn(S(=O)(=O)N3CCOCC3)c2cc1C`, the Kd was > 4 mM (inactive). `NC(=O)c1oc2ccccc2c1N` was tested, and the Kd was > 4 mM (inactive). For `CC(=O)c1c(C)nc(-c2cccs2)n1O`, the Kd was > 4 mM (inactive). With `Cc1ccc(N2C(=O)C3C4C=CC(O4)C3C2=O)cc1` (centres undefined) the Kd was > 4 mM (inactive). In the case of `Cc1nn(C)c(N2CCOCC2)c1N`, the Kd is reported as > 4 mM (inactive). For `Nc1nc2ncc(CNc3ccc(C(=O)N[C@@H](CCC(=O)O)C(=O)O)cc3)nc2c(=O)[nH]1`, the Kd was > 4 mM (inactive). With `O=C(O)C1CSC(c2ccco2)N1` (centres undefined) the Kd was > 4 mM (inactive). For `CC1(C)N([O-])c2cc([N+](=O)[O-])ccc2[N+]1=O`, the Kd was > 4 mM (inactive). In the case of `CC(=O)NCCc1cc2ccc(C)c(C)c2[nH]c1=O`, the Kd is reported as > 4 mM (inactive). In the case of `Nc1ccc2c(c1)COc1ccccc1O2`, the Kd is reported as > 4 mM (inactive). In the case of `OCc1csc(-c2ccccc2)n1`, the Kd is reported as > 4 mM (inactive). In the case of `NN1C(=O)/C(=C/c2ccc(O)c(O)c2)SC1=S`, the Kd is reported as > 4 mM (inactive). For `S=c1nc2c(n[nH]1)[nH]c1ccccc12`, the Kd was > 4 mM (inactive). `COc1ccc(/C=N/n2cn[nH]c2=S)cc1` was tested, and the Kd was > 4 mM (inactive). For `CC(=O)Nc1cccc(-c2nnc3n2CC(C)S3)c1` (centres undefined), the Kd was > 4 mM (inactive). In the case of `CC1=CCc2c(cc3oc(C)cc(=O)c3c2O)OC1`, the Kd is reported as > 4 mM (inactive). In the case of `CN1CCC(NC(=O)c2ccccc2[N+](=O)[O-])CC1`, the Kd is reported as > 4 mM (inactive). In the case of `CC(C)c1c(O)ccc2c1CCC1C(C)(C)CCC[C@]21C` (some centres undefined), the Kd is reported as > 4 mM (inactive). In the case of `C/C=C(\C)C(=O)O[C@H]1C[C@@H](OC(C)=O)[C@@]2(C(=O)OC)CO[C@@H]3C2[C@]12CO[C@](O)(C(=O)OC)[C@H]2[C@](C)(C12O[C@@]1(C)[C@H]1C[C@@H]2OC2OC=C[C@@]21O)[C@@H]3O` (some centres undefined), the Kd is reported as > 4 mM (inactive). For `CN1CC(=O)Nc2ccc([N+](=O)[O-])cc2C1=O`, the Kd was > 4 mM (inactive). With `O=C(NC1CCS(=O)(=O)C1)c1cccs1` (centres undefined) the Kd was > 4 mM (inactive). `CCP(=O)(CC)c1cccc(C)c1` was tested, and the Kd was > 4 mM (inactive). For `c1ccc(Cc2nnc3sc(-c4cccnc4)nn23)cc1`, the Kd was > 4 mM (inactive). In the case of `OC[C@H]1O[C@@H](n2cnc3c(NCc4ccco4)ncnc32)[C@H](O)[C@@H]1O`, the Kd is reported as > 4 mM (inactive). In the case of `O=c1c(-c2ccc(O)cc2)coc2cc(O)ccc12`, the Kd is reported as > 4 mM (inactive). In the case of `O=c1cnnc(SCCc2ccccc2)[nH]1`, the Kd is reported as > 4 mM (inactive). For `C=CC(C1=CC(=O)C(OC)=CC1=O)c1ccccc1` (centres undefined), the Kd was > 4 mM (inactive). `Cc1ccc2c(C)c(C(=O)Nc3nnc(C)s3)oc2c1` was tested, and the Kd was > 4 mM (inactive). In the case of `O=C(O)c1ccc2occc2c1`, the Kd is reported as > 4 mM (inactive). In the case of `CCCNC(CC(=O)Nc1cccnc1)C(=O)O` (centres undefined), the Kd is reported as > 4 mM (inactive). For `Cc1[nH]c2ccccc2c(=O)c1CO`, the Kd was > 4 mM (inactive). `COc1ccc(C2CC(=O)c3ccc(OC)cc3O2)cc1` (centres undefined) was tested, and the Kd was > 4 mM (inactive). For `Cn1cnc2cc(NC(=O)c3ccco3)ccc21`, the Kd was > 4 mM (inactive). With `COC(=O)CC1=Nc2ccccc2NC(=O)C1` the Kd was > 4 mM (inactive). `O=C(O)Cn1c(=O)sc2ccccc21` was tested, and the Kd was > 4 mM (inactive). In the case of `Cc1ccccc1NS(=O)(=O)c1ccc(F)cc1`, the Kd is reported as > 4 mM (inactive). With `CN1C(=O)C2CC=C(Cl)CC2C1=O` (centres undefined) the Kd was > 4 mM (inactive). `O=C1CC(=O)N(c2ccccc2)C(=O)N1` was tested, and the Kd was > 4 mM (inactive). `Cc1ccc(CO)o1` was tested, and the Kd was > 4 mM (inactive). `O=C1C=CC(=O)N1c1ccccc1O` was tested, and the Kd was > 4 mM (inactive). `NCc1ccc(-c2cccs2)cc1` was tested, and the Kd was > 4 mM (inactive). `C/C=C/c1ccc2c(c1)OCO2` was tested, and the Kd was > 4 mM (inactive). For `Nc1ccc(NS(=O)(=O)c2ccc(N)cc2)cc1`, the Kd was > 4 mM (inactive). For `CC(C)=CCC/C(C)=C/CC/C(C)=C/CC/C(C)=C/CC/C(C)=C/CC/C(C)=C/CC/C(C)=C/CC/C(C)=C/CC/C(C)=C/CO`, the Kd was > 4 mM (inactive). `Cc1nccc2c1[nH]c1ccccc12` was tested, and the Kd was > 4 mM (inactive). For `OCc1snnc1-c1ccccc1`, the Kd was > 4 mM (inactive). With `CS(=O)(=O)N1CCN(c2ccccc2F)CC1` the Kd was > 4 mM (inactive). `O=c1[nH]c(NCCO)nnc1Cc1ccccc1` was tested, and the Kd was > 4 mM (inactive). `CN(C)C1CCS(=O)(=O)C1` (centres undefined) was tested, and the Kd was > 4 mM (inactive).
